Laboratory results published in US20110288052A1, “NOVEL COMPOUNDS, PHARMACEUTICAL COMPOSITIONS CONTAINING SAME, AND METHODS OF USE FOR SAME” (priority 2008, published 2011).
Converted amounts (≈) assume the structure as drawn.

Columns and labels:
Type in all cases: cell-based
[1] = test system: MCF-7 human breast cancer cells; experiment: XTT cytotoxicity assay, MCF-7 (M); settings: MCF7, MCF-7, 72 hours
Protocol: XTT Cytotoxicity Assay The XTT assay is a non-radioactive alternative for the [^51Cr] release cytotoxicity assay. XTT is a tetrazolium salt that is reduced to a formazan dye only by metabolically active, viable cells. The reduction of XTT is measured spectrophotometrically as OD490-OD650. To measure the cytotoxicity of specific compounds against cancer cells, 9×10^3 MCF-7 human breast cancer cells (shown in the tables as “(M)”), obtained from the American Type Culture Collection are plated per well in 96 well plates in DMEM medium with 10% fetal bovine serum, insulin, penicillin, and streptomycin. Following overnight culture at 37° C. and 5% CO2, the compounds to be tested, dissolved in DMSO, are added to the wells in 1 μl volume at the following concentrations: 80, 40, 20, 10, 5, 2.5, 1.25, and 0.625 μg/ml in triplicate. Additional concentrations are tested if required. 1 μl of DMSO is added to triplicate wells are the vehicle control. C75 is run at 40, 20, […], and 5 μg/ml in triplicate as positive controls. After 72 hours of incubation, cells are incubated for 4 hours with the XTT reagent as per manufacturer's instructions (Cell Proliferation Kit II (XTT) Roche). Plates are read at OD490 and OD650 on a Molecular Devices SpectraMax Plus Spectrophotometer. Three wells containing the XTT reagent without cells serve as the plate blank. XTT data are reported as OD490-OD650. Averages and standard error of the mean are computed using SOFTmax Pro software (Molecular Dynamics). The IC50 for the compounds is defined as the concentration of drug leading to a 50% reduction in OD490-OD650 compared to controls. The OD490-OD650 are computed by the SOFTmax PRO software (Molecular Devices) for each compound concentration. IC50 is calculated by linear regression, plotting the FAS activity as percent of control versus drug concentrations. Linear regression, best-fit line, r^2, and 95% confidence intervals are determined using Prism Version 3.0 (Graph Pad Software).

[2] = test system: HCT116 cells; experiment: XTT cytotoxicity assay, HCT116 (H); settings: Homo sapiens, HCT-116
Protocol: (§1) XTT Cytotoxicity Assay The XTT assay is a non-radioactive alternative for the [^51Cr] release cytotoxicity assay. XTT is a tetrazolium salt that is reduced to a formazan dye only by metabolically active, viable cells. The reduction of XTT is measured spectrophotometrically as OD490-OD650. To measure the cytotoxicity of specific compounds against cancer cells, 9×10^3 MCF-7 human breast cancer cells (shown in the tables as “(M)”), obtained from the American Type Culture Collection are plated per well in 96 well plates in DMEM medium with 10% fetal bovine serum, insulin, penicillin, and streptomycin. Following overnight culture at 37° C. and 5% CO2, the compounds to be tested, dissolved in DMSO, are added to the wells in 1 μl volume at the following concentrations: 80, 40, 20, 10, 5, 2.5, 1.25, and 0.625 μg/ml in triplicate. Additional concentrations are tested if required. 1 μl of DMSO is added to triplicate wells are the vehicle control. C75 is run at 40, 20, […], and 5 μg/ml in triplicate as positive controls. After 72 hours of incubation, cells are incubated for 4 hours with the XTT reagent as per manufacturer's instructions (Cell Proliferation Kit II (XTT) Roche). Plates are read at OD490 and OD650 on a Molecular Devices SpectraMax Plus Spectrophotometer. Three wells containing the XTT reagent without cells serve as the plate blank. XTT data are reported as OD490-OD650. Averages and standard error of the mean are computed using SOFTmax Pro software (Molecular Dynamics). The IC50 for the compounds is defined as the concentration of drug leading to a 50% reduction in OD490-OD650 compared to controls. The OD490-OD650 are computed by the SOFTmax PRO software (Molecular Devices) for each compound concentration. IC50 is calculated by linear regression, plotting the FAS activity as percent of control versus drug concentrations. Linear regression, best-fit line, r^2, and 95% confidence intervals are determined using Prism Version 3.0 (Graph Pad Software). The test was also run against OVCAR3 cells (“OV”), and HCT116 cells (“H”).

[3] = test system: OVCAR3 cells; experiment: XTT cytotoxicity assay, OVCAR3 (OV); settings: Homo sapiens
Protocol: as §1

[4] = test system: MCF-7 human breast cancer cells (fatty acid oxidation pathway activity); experiment: Fatty acid oxidation ([14C]palmitate to acid soluble products); settings: for Emax at 0.098 µg/mL: at 0.098 μg/ml; for FAO SC 150: concentration leading to 150% of control acid soluble products, Neg = threshold not reached; for Emax at 1.56 µg/mL: at 1.56 μg/ml; for Emax at 6.25 µg/mL: at 6.25 μg/ml
Protocol: Measurement of Fatty Acid Oxidation and Determination of SC150 of Compounds This assay measures the degradation of [^14C]palmitate into acid soluble products and is a measure of fatty acid oxidation pathway activity in vitro. It is utilized to measure fatty acid oxidation in vitro. MCF-7 human breast cancer cells cultured as above, are plated at 2.5×10^5 cells per well in 24-well plates. Following overnight incubation, the compounds to be tested, solubilized in DMSO, are added at […], 0.39, 1.56, 6.25, 25, and 100 μg/ml in triplicate, with lower concentrations tested if necessary. DMSO is added to triplicate wells for a vehicle control. C75 is run at 5 and 10 μg/ml in triplicate as positive controls. After 1 hour of incubation, medium is removed 100 uM of [^14C] palmitate in cyclodextran and 200 uM carnitine in serum free medium (250 μl volume) is added to each well. After 30 minutes of additional incubation, the reaction is stopped by addition of 2.6N HClO4. Contents of each well are transferred to 1.5 ml Eppendorf tubes and 4N KOH is added. The tubes are incubated for 30 minutes at 60° C. 1 M NaAcetate and 3N H2SO4 is added to each tube and vortexed. The tubes are centrifuged at 1000 rpm for 5 minutes at RT. 250 μl of the supernatant is transferred to a 2 ml eppendorf tube. To each tube is added: 938 μl of chloroform:methanol (1:1), 468 μl chloroform and 281 μl of deionized water. The tubes are vortexed and centrifuged at 1000 rpm for 5 minutes at RT. 750 μl of the upper phase is transferred into a scintillation vial 5 ml of scintillant is added and vials are counted for 1 minute for ^14C. The Beckman Scintillation counter calculates the average cpm values for triplicates. The SC150 for the compounds is defined as the concentration of drug leading to a 150% increase in production of acid soluble products of [^14C] palmitate as compared to untreated controls. This is determined by plotting the average cpm for each inhibitor concentration tested, performing linear regression and computing the best-fit line, r^2 values, and 95% confidence intervals. The average cpm values are computed by the Beckman scintillation counter (Model LS6500) for each compound concentration. Computation of linear regression, best-fit line, r^2, and 95% confidence intervals are calculated using Prism Version 3.0 (Graph Pad Software). If a compound fails to achieve this 150% threshold it is considered negative. The maximum value achieved is also reported (FAO Max).

[5] = Homo sapiens, MCF7, read-out: FAO Max

CCCCCCCCC1(C)SC(=O)C=C1OCC(=O)Nc1ccc(OC)cc1 (stereo not drawn)
IC50 [1]: 9.7 µg/mL (≈ 23.9 µM) | IC50 [2]: 15.6 µg/mL (≈ 38.5 µM) | IC50 ([3]; OVCAR-3): 17.8 µg/mL (≈ 43.9 µM) | Emax at 0.098 µg/mL [4, 5]: 90% | FAO SC 150 [4]: Neg

CCCCCCCCOc1ccc(NC(=O)COC2=CC(=O)SC2(C)CCCCCCCC)cc1 (stereo not drawn)
IC50 [1]: > 80 µg/mL | IC50 [2]: > 80 µg/mL | IC50 ([3]; OVCAR-3): 67 µg/mL (≈ 133 µM) | Emax at 0.098 µg/mL [4, 5]: 97% | FAO SC 150 [4]: Neg

CCCCCCCC[C@]1(C)SC(=O)C=C1OCC(=O)Nc1ccccc1C(F)(F)F
IC50 [1]: 17.6 µg/mL (≈ 39.7 µM) | IC50 [2]: 15.6 µg/mL (≈ 35.2 µM) | IC50 ([3]; OVCAR-3): 24.1 µg/mL (≈ 54.3 µM) | Emax at 1.56 µg/mL [4, 5]: 105% | FAO SC 150 [4]: Neg

CCCCCCCCC1(C)SC(=O)C=C1OCC(=O)Nc1ccc(Cl)cc1Cl (stereo not drawn)
IC50 [1]: 16.8 µg/mL (≈ 37.8 µM) | IC50 [2]: 13.1 µg/mL (≈ 29.5 µM) | IC50 ([3]; OVCAR-3, unit given as ml): 64.5 µg/mL (≈ 145 µM) | Emax at 1.56 µg/mL [4, 5]: 141% | FAO SC 150 [4]: Neg

CCCCCCCCC1(C)SC(=O)C=C1OCC(=O)Nc1ccc(Cl)cc1 (stereo not drawn)
IC50 [1]: 5.2 ± 2 µg/mL (≈ 12.7 µM) | IC50 [2]: 5.9 ± 2.7 µg/mL (≈ 14.4 µM) | IC50 ([3]; OVCAR-3): 9.2 ± 5 µg/mL (≈ 22.4 µM) | Emax at 1.56 µg/mL [4, 5]: 106% | FAO SC 150 [4]: Neg

CCCCCCCCC1(C)SC(=O)C=C1OCC(=O)Nc1ccc(C(F)(F)F)cc1 (stereo not drawn)
IC50 [1]: 2.2 µg/mL (≈ 4.96 µM) | IC50 [2]: 4.8 µg/mL (≈ 10.8 µM) | IC50 ([3]; OVCAR-3): 4 µg/mL (≈ 9.02 µM) | Emax at 6.25 µg/mL [4, 5]: 130% | FAO SC 150 [4]: Neg

CCCCCCCC[C@]1(C)SC(=O)C=C1OCC(=O)Nc1ccccc1OC(F)(F)F
IC50 [1]: > 80 µg/mL | IC50 [2]: 78.8 µg/mL (≈ 171 µM) | IC50 ([3]; OVCAR-3): > 80 µg/mL | Emax at 25 µg/mL ([4]; Homo sapiens, MCF7, at 25 μg/ml, read-out: FAO Max): 116% | FAO SC 150 [4]: Neg

CCCCCCCCC1(C)SC(=O)C=C1OCC(=O)Nc1cccc(C(F)(F)F)c1 (stereo not drawn)
IC50 [1]: 5.9 µg/mL (≈ 13.3 µM) | IC50 [2]: 7.6 µg/mL (≈ 17.1 µM) | IC50 ([3]; OVCAR-3): 11 µg/mL (≈ 24.8 µM) | Emax at 0.395 µg/mL ([4]; Homo sapiens, MCF7, at 0.395 μg/ml, read-out: FAO Max): 75% | FAO SC 150 [4]: Neg

CCCCCCCCC1(C)SC(=O)C=C1OCC(=O)Nc1ccc(SC)cc1 (stereo not drawn)
IC50 [1]: 7.9 µg/mL (≈ 18.7 µM) | IC50 [2]: 11.5 µg/mL (≈ 27.3 µM) | IC50 ([3]; OVCAR-3): 16.9 µg/mL (≈ 40.1 µM) | Emax at 6.25 µg/mL [4, 5]: 100% | FAO SC 150 [4]: Neg
